Test results: patent US5922324A, “Propolis extract with improved water-solubility” (Kabushiki Kaisha Hayashibara Seibutsu Kagaku Kenkyujo, priority 1997, dated 1999)
In brackets after ≈: the same amount, converted by molar mass.

Experiments:
[1] = Confirmation of insolubilized substance C (HPLC of supernatant after 101-fold dilution); assay type: physicochemical
Source text: A propolis mass was disrupted, injected into 3 columns and fed with 50 v/v % aqueous ethanol solution by counter-current extraction method to dissolve and extract the effective ingredients of propolis. The extract was filtered to obtain a liquid propolis extract containing about 20 w/w % dry solid in a yield of about 30% of the material propolis, d.s.b.
The pH of the sample was 5.0 when measured with a pH-meter. The sample was placed in a beaker and diluted with water by 101-fold into a dilute aqueous ethanol solution in the form of a white suspension which was then allowed to stand at 25° C. for an hour under gentle stirring conditions and centrifuged to obtain a supernatant. High-performance liquid chromatography (HPLC) was used to quantify the concentration of substance C in the supernatant according to the method as described in Bioscience, Biotechnology, and Biochemistry, Vol. 58, No. 5, pp. 945-946 (1994). As a control, the sample was diluted by 101-fold with ethanol in place of water.

[2] = Water-solubility of substance C in propolis extract (supernatant concentration); assay type: physicochemical
Method: The sample in Experiment 1 was mixed with an equal amount of 50 v/v % aqueous ethanol solution either with or without an adequate amount of sodium hydroxide, and the mixture with a pH 5.0 was adjusted to a pH of 5.2, 5.5, 5.8, 6.0, 6.2, 6.4, 6.8, 7.0, 7.2, 7.5 or 8.1 before prepared into an about 10 w/w % liquid propolis extract, d.s.b., as samples used in the following experiments.
After one-month standing at 25° C., the samples were tested similarly as in Experiments 2-(1) to 2-(4) and subjected to a sensory evaluation using 12 panels.

Concentration of substance C in water dilution relative to control diluted with ethanol ([1]; 101-fold dilution): 0.06%
solubility kinetic ([1]; dilute aqueous ethanol, organic solvent or mixture, 25° C., pH about 5.0 extract, 10 w/w % d.s.b. in 50 v/v % aqueous ethanol, diluted with water by about 100 folds, read-out: Concentration in which substance C dissolves in dilute aqueous ethanol solution): 0.03 µg/mL (≈ 0.0999 µM)
Concentration of substance C in supernatant of dilution diluted with ethanol (Control) ([1]; diluted with ethanol by 101-fold, control): 46.7 ppm
Solubilization of substance C on dilution with water (in words) ([1]; dilution with water into dilute aqueous ethanol solution): insolubilized most of substance C
Amount of substance C of the sample contained in sediments collected by centrifugation ([1]; sediments dissolved in ethanol, after dilution with water): at least 99%
improvement of solubility of substance C in dilute aqueous ethanol solution ([2]; pH increased from about 5.0 to 5.5-7.0): 15-100 folds
Structure (SMILES): CC(C)=CCc1cc(C=CC(=O)O)cc(CC=C(C)C)c1O [substance C, 3-[4-hydroxy-3,5-bis(3-methyl-2-butenyl)phenyl]-2-propenoic acid]
Water-solubility of substance C (in words) ([2]; pH dependence): greatly increased when adjusted to a pH of over 5.5
